In ChEMBL document CHEMBL1143806, “Synthesis and biological evaluation of the suberoylanilide hydroxamic acid (SAHA) beta-glucuronide and beta-galactoside for application in selective prodrug chemotherapy” (Bioorg Med Chem Lett, 2007):
Active and inactive are the calls of the source. The calls are words filed in the database; no cut-off is given here.

Assays:
[1] = Stability in presence of 100 U/mL Escherichia coli beta-glucuronidase assessed as SAHA production after 7 mins; type: ADME
NCI-H661 = test: Antiproliferative activity against human H661 cells at 1 to 25 uM after 48 hrs; type: functional, cell-based
[2] = Stability in presence of 200 to 1000 U/mL bovine liver beta-glucuronisase assessed as SAHA production at 100 ug/mL; type: ADME; details: cattle
[3] = Stability in presence of 100 U/mL Escherichia coli beta-glucuronidase assessed as SAHA production after 30 mins; type: ADME; details: 0.5 h

Row | Stability [1] | Stability [2] | Stability [3] | SMILES | Activity (NCI-H661)
1 | Stable | Stable | Stable | O=C(CCCCCCC(=O)Nc1ccccc1)NO[C@@H]1O[C@H](C(=O)O)[C@@H](O)[C@H](O)[C@H]1O | inactive
2 | – | – | – | O=C(CCCCCCC(=O)Nc1ccccc1)NO[C@@H]1O[C@H](CO)[C@H](O)[C@H](O)[C@H]1O | inactive
